In US5085991A, “Process of preparing purified aqueous indole solution” (Mitsui Toatsu Chemicals, Inc., priority 1987, dated 1992):
Where two headings read alike, the source gives them in different places.

Key:
tryptophan synthase = tryptophan synthase (Escherichia coli, UniProt P0A879); test: Activity of immobilized tryptophan synthase source after standing in aqueous solutions of organic impurities; assay type: biochemical, Escherichia coli MT-10232 (FERM BP-19); details: for activity at 200 µg/mL: impurity 200 ppm, ratio to enzyme left in reference solution without organic substance; for activity at 200 µg/mL / activity at 1000 µg/mL / activity at 20 µg/mL / activity at 50 µg/mL / activity at 500 µg/mL: 30° C., pH 8.5; for activity at 1000 µg/mL: impurity 1000 ppm; for activity at 1000 µg/mL / activity at 20 µg/mL / activity at 50 µg/mL / activity at 500 µg/mL: ratio to enzyme left in reference solution; for level at which the impurity inhibits tryptophan synthase: enzyme synthesizing tryptophan from indole and L-serine; for activity at 20 µg/mL: impurity 20 ppm; for activity at 50 µg/mL: impurity 50 ppm; for activity at 500 µg/mL: impurity 500 ppm
Chain of tryptophan synthase (P0A879 2-397): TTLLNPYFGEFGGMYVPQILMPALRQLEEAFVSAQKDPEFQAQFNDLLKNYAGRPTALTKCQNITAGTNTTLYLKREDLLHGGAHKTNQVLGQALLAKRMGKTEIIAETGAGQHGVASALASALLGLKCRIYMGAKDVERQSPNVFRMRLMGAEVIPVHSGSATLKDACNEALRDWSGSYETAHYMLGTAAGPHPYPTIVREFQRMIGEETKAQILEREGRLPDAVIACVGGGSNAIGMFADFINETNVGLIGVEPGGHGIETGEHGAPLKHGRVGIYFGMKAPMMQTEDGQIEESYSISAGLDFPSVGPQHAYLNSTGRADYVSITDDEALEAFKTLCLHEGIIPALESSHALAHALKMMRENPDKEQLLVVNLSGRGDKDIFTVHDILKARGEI
Chain of tryptophan synthase (P0A877 whole entry, further chain): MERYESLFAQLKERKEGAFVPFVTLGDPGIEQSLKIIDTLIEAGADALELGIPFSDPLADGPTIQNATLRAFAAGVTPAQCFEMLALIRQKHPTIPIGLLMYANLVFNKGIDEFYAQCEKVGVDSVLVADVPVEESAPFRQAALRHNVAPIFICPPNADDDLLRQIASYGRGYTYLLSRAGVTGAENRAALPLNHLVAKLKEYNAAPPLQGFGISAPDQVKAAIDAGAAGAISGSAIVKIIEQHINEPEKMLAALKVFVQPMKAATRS
Experimental: Escherichia coli MT-10232 (FERM BP-19), which is a tryptophan synthase-producing bacterium, was inoculated to 100 ml of the culture medium having the composition shown in Table 2 in a 500 ml flask, and was incubated at 35° C. for 24 hours. Two hundred milliliters (in two flasks) of the culture medium was inoculated to 15 1 of the culture medium having the composition shown in Table 3 in 30 1 of jar fermenter and was incubated at 35° C., pH 6.8 (adjusted with 28% aqueous ammonia) for 30 hours.
After the culture, the culture medium was centrifuged to collect 600 g wet weight of the bacterial cells. The cells were placed in a sealed container and restored in a refrigerator at 4° C., and were used for preparing the immobilized enzyme source.
One part of the above-described wet bacterial cells and one part of isotonic sodium chloride solution were mixed with stirring. On the other hand, 7.76 parts of distilled water and 0.24 parts of sodium alginate (NSPLL manufactured by Kibun Food Chemifa, Co., Ltd.) were mixed with stirring and pH thereof was adjusted to 8.5 with sodium hydroxide.
Two parts of the suspension of the cells and 8 parts of the sodium alginate solution were mixed with stirring and the resulting mixture was fed into a syringe and was dropped into a gelling solution from the tip of a needle with an inner diameter of 0.5 mm to 0.8 mm.
The particles formed by dropping the mixture into the gelling solution was matured under stirring in the gelling solution to obtain immobilized enzyme source.
To each of the aqueous solutions with a volume of 100 ml containing aniline, N-ethylaniline, o-ethylaniline, o-toluidine, 3-methylindole or 2-ethylindole in the amount shown in Table 4, […] of calcium chloride dihydrate and 1 mg of pyridoxal-5'-phosphate were added, and the pH thereof was adjusted to 8.5 with aqueous ammonia.
Further, as a reference solution, 100 ml of distilled water containing no organic substance was subjected to the same procedure as described above and the immobilized enzyme source was added thereto as mentioned above, followed by being left to stand at 30° C.
Twenty four hours later and 96 hours later, 1 g of immobilized enzyme source was removed from each of the solutions and the enzyme activity was determined. The ratio of the activity of the enzyme left in the solution of the organic substance to the activity of the enzyme left in the reference solution was determined and is shown in Table 4.
The enzyme activity was determined as follows:
Ten milliliters of reaction medium containing indole, L-serine, pyridoxal-5'-phosphate (PLP) and 0.3 g of the immobilized enzyme source was prepared and the reaction was conducted at 35° C. in a shaking incubator for 1 hour with shaking. The produced L-tryptophan was analyzed with high performance liquid chromatography.

[1] = room temperature; cited from earlier work
[2] = 24 h, read-out: Activity Ratio 24 Hours Later
[3] = 96 h, read-out: Activity Ratio 96 Hours Later

## CCc1ccccc1N [o-ethylaniline]
Tryptophan synthase; [2]
  activity at 200 µg/mL: 90%
  activity at 1000 µg/mL: 71%
Tryptophan synthase; [3]
  activity at 200 µg/mL: 77%
  activity at 1000 µg/mL: 50%
Tryptophan synthase
  level at which the impurity inhibits tryptophan synthase: about 200 ppm

## CCc1cc2ccccc2[nH]1 [2-ethylindole]
Tryptophan synthase; [2]
  activity at 20 µg/mL: 93%
  activity at 50 µg/mL: 73%
  activity at 200 µg/mL: 68%
Tryptophan synthase; [3]
  activity at 20 µg/mL: 71%
  activity at 50 µg/mL: 54%
  activity at 200 µg/mL: 48%
Tryptophan synthase
  level at which the impurity inhibits tryptophan synthase: about 20 ppm

## Nc1ccccc1 [Aniline]
Tryptophan synthase; [2]
  activity at 200 µg/mL: 98%
  activity at 1000 µg/mL: 100%
Tryptophan synthase; [3]
  activity at 200 µg/mL: 101%
  activity at 1000 µg/mL: 82%

## Cc1ccccc1N [o-toluidine]
Tryptophan synthase; [2]
  activity at 200 µg/mL: 97%
  activity at 1000 µg/mL: 88%
Tryptophan synthase; [3]
  activity at 200 µg/mL: 106%
  activity at 1000 µg/mL: 80%

## c1ccc2[nH]ccc2c1 [indole]
[1]
  solubility in water: 3000 to 4000 µg/mL

## Cc1c[nH]c2ccccc12 [3-methylindole]
Tryptophan synthase; [2]
  activity at 200 µg/mL: 94%
  activity at 500 µg/mL: 94%
Tryptophan synthase; [3]
  activity at 200 µg/mL: 89%
  activity at 500 µg/mL: 84%
Tryptophan synthase
  level at which the impurity inhibits tryptophan synthase: about 200 ppm

## CCNc1ccccc1 [N-ethylaniline]
Tryptophan synthase; [2]
  activity at 200 µg/mL: 104%
  activity at 1000 µg/mL: 100%
Tryptophan synthase; [3]
  activity at 200 µg/mL: 97%
  activity at 1000 µg/mL: 89%
